Results from patent US7129368B2, “Platinum carboxylate anticancer compounds” (Sonus Pharmaceuticals, Inc., priority 2004, dated 2006).

How the values were obtained:
[1] = tested on: HCT-116 colorectal carcinoma cells; assay: ALAMAR BLUE cytotoxicity assay in HCT-116 cells; format: cell-based; conditions: HCT-116, ALAMAR BLUE, 48 hours incubation with drug
Method: (§1) ALAMAR BLUE Assay. […] Cytotoxicity was measured in two cell lines: a colorectal carcinoma cell line (HCT-116); and a non-small cell lung cancer cell line (NCI-H460). The marker used to quantify cell growth inhibition was ALAMAR BLUE, a non-fluorescent blue dye that is reduced to a fluorescent red product by viable cells. The amount of fluorescence is proportional to the number of viable cells.
(§2) Screening in HCT-116 cells. HCT-116 colorectal carcinoma cells (ATCC # CCL-247) were inoculated into a set of twenty-four 96-well microtiter plates containing 100 μl of McCoy's 5A media (HyClone, Logan, Utah) per well to a plating density of 7500 cells per well. After cell inoculation, the microtiter plates were incubated at 37° C., 5% CO2, 95% air and 100% relative humidity for 24 hours. After 24 hours incubation, ALAMAR BLUE reagent (Biosource, Camarillo, Calif.) was added to two plates to a final concentration of 10% v/v in each well. The plates were returned to the incubator for 4 hours and then read in a Perkin Elmer HTS 7000 Bio Assay Reader using an excitation wavelength of 535 nm and an emission wavelength of 590 nm to determine the cell population at the time of drug addition—time zero.
(§3) Two no-drug control plates were also prepared.
(§4) Following drug addition, the plates were incubated for an additional 48 hours at the conditions above.
(§5) After 48 hours of incubation the plates were removed and ALAMAR BLUE reagent was added to a final concentration of 10% v/v to each well. The plates were returned to the incubator for 4 hours and read in the Bio Assay Reader as described above.

[2] = tested on: NCI-H460 non-small cell lung cancer cells; assay: ALAMAR BLUE cytotoxicity assay in NCI-H460 cells; format: cell-based; conditions: H-460, ALAMAR BLUE, 48 hours incubation with drug
Method: as §1, §2, §3, §4, §5
Screening in NCI-H460 cells. The screening protocol above was repeated using NCI-H460 non-small cell lung cancer cells (ATCC # HTB-177) plated to a density of 10,000 cells per well in RPMI media (Mediatech, Inc., Herndon, Va.).

[3] = tested on: HT29 colorectal carcinoma cell line; assay: MTS cytotoxicity assay in HT29 cells; format: cell-based; conditions: 72 hours of treatment, read-out: Growth Inhibition (GI50)
Method: (§6) MTS Assay. […] Cytotoxicity was measured in six cell lines: two colorectal carcinoma cell lines, HT29 (ATCC # CCL-218) and HCT-116 (ATCC # CCL-247); two small cell lung cancer cell lines, NCI-H69 (ATCC # HTB-119) and NCI-H69/AR (ATCC # CRL-11351); and two ovarian cancer cell lines, A2780 (ECACC # 93112519) and A2780/DPPt (similar strain, A2780 cis, available at ECACC # 93112517). Viable cell number was measured using the MTS cell viability assay ([…] 96 AQueous One Solution Cell Proliferation Assay kit available from Promega, USA). Cell growth inhibition was quantified by measuring absorbance at 490 nm, which is directly proportional to the number of living cells in culture.
(§7) The platinum compounds were prepared as 10 mM stock solutions in water containing 5% dextrose (D5W). Cisplatin was prepared in saline. Dosing solutions were prepared by serial dilution of the stock solutions in cell culture medium to provide final concentrations of 0.006–100 μM.
(§8) All tumor lines were propagated under sterile conditions and incubated at 37° C. in HEPA-filtered CO2 tissue culture incubators with 5% CO2 and 95% humidity in colorless RPMI 1640 medium (Mediatech, Hemdon, Va.) containing 5% fetal bovine serum (complete medium). […]
(§9) Viable cell number was measured by the MTS dye conversion assay after a total of 72 hours of treatment. […] The absorbance was measured at 490 nm on a Coulter microplate reader.

[4] = tested on: HCT-116 colorectal carcinoma cell line; assay: MTS cytotoxicity assay in HCT-116 cells; format: cell-based; conditions: HCT-116, MTS, 72 hours of treatment; read-out: Growth Inhibition (GI50)
Method: as §6, §7, §8, §9

[5] = tested on: NCI-H69 small cell lung cancer cell line; assay: MTS cytotoxicity assay in NCI-H69 cells; format: cell-based; conditions: 72 hours of treatment, read-out: Growth Inhibition (GI50)
Method: as §6, §7, §8, §9

[6] = tested on: NCI-H69/AR small cell lung cancer cell line; assay: MTS cytotoxicity assay in NCI-H69/AR cells; format: cell-based; conditions: 72 hours of treatment, read-out: Growth Inhibition (GI50)
Method: as §6, §7, §8, §9

[7] = tested on: A2780 ovarian cancer cell line; assay: MTS cytotoxicity assay in A2780 cells; format: cell-based; conditions: 72 hours of treatment, read-out: Growth Inhibition (GI50)
Method: as §6, §7, §8, §9

[8] = Effect of pH on CDTA-diplatinum/CDTA-monoplatinum interconversion (HPLC); format: physicochemical
Method: Cyclohexane-trans-1,2-diaminetetraacetic-acid-diplatinum (CDTA-diplatinum) was prepared according to Example 1. Three solutions of CDTA-diplatinum were prepared: 1 mg/ml in water (pH ˜6.5) (Solution 1); 1 mg/ml in 0.01 N NaOH (pH˜9.5) (Solution 2); and 1 mg/ml in 0.01 N HCl (pH˜2) (Solution 3).

[9] = tested on: A2780/DPPt ovarian cancer cell line; assay: MTS cytotoxicity assay in A2780/DPPt cells; format: cell-based; conditions: A2780/DDPT, 72 hours of treatment, read-out: Growth Inhibition (GI50)
Method: MTS Assay. […] Cytotoxicity was measured in six cell lines: two colorectal carcinoma cell lines, HT29 (ATCC # CCL-218) and HCT-116 (ATCC # CCL-247); two small cell lung cancer cell lines, NCI-H69 (ATCC # HTB-119) and NCI-H69/AR (ATCC # CRL-11351); and two ovarian cancer cell lines, A2780 (ECACC # 93112519) and A2780/DPPt (similar strain, A2780 cis, available at ECACC # 93112517). Viable cell number was measured using the MTS cell viability assay ([sequence] 96 AQueous One Solution Cell Proliferation Assay kit available from Promega, USA). Cell growth inhibition was quantified by measuring absorbance at 490 nm, which is directly proportional to the number of living cells in culture.

[10] = Solution 1: 1 mg/ml in water (pH ~6.5)
[11] = Solution 2: 1 mg/ml in 0.01 N NaOH (pH ~9.5)
[12] = Solution 3: 1 mg/ml in 0.01 N HCl (pH ~2)

Row | Molecule | GI50 [1] | GI50 [2] | GI50 [3] | GI50 [4] | GI50 [5] | GI50 [6] | GI50 [7] | percentage of species by HPLC in a solution of CDTA-diplatinum (Example 1) [8, 10] | percentage of species by HPLC in a solution of CDTA-diplatinum (Example 1) [8, 11] | percentage of species by HPLC in a solution of CDTA-diplatinum (Example 1) [8, 12] | GI50 [9]
1 | N.N.[Cl][Pt][Cl] [Cisplatin, cis-[PtCl2(NH3)2], reference compound] | 4 µM | 469 µM |  |  |  |  |  |  |  |  | 
2 | N.N.O=C([O-])C1(C(=O)[O-])CCC1.[Pt+2] [Carboplatin, cis-diamine[1,1-cyclobutanedicarboxylato(2-)]—O,O′-platinum (II), reference compound] | 159 µM | 9 µM |  |  |  |  |  |  |  |  | 
3 | cyclohexane-trans-1,2-diaminetetraacetic-acid-monoplatinum [CDTA-monoplatinum] | 6.4 µM | 9.71 µM | 65 µM | 38 µM | 10 µM | 18 µM | 5.57 µM | 45% | 99% | 98% | 
4 | cyclohexane-trans-1,2-diaminetetraacetic-acid-diplatinum [CDTA-diplatinum] | 0.55 µM | 0.371 µM | 78 µM | 24 µM | 6.69 µM | 8.9 µM | 5.45 µM | 54% | 1% | 2% | 49 µM
